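Dose response: 5 concentrations. Exposure: 48 h. Format: 96-well plates. Endpoint: linear interpolation; highest concentration if not reached. GI50: concentration for 50% inhibition of growth.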 Calls of active or inactive are those of the source. No stated cut-off is given here; in the data, active = GI50 up to about 1.1 µM and inactive = higher.
Assays:
Experiment in all cases: DTP human tumour cell line panel, 48 h
[1] = test system: HOP-62
[2] = test system: ACHN
[3] = test system: SNB-19
[4] = test system: SN12C
[5] = test system: T47D
[6] = test system: Malme-3M
[7] = test system: NCI-H522
[8] = test system: SK-MEL-28
[9] = test system: LOX IMVI
[10] = test system: MDA-N
[11] = test system: HOP-92
[12] = test system: KM12
[13] = test system: Hs-578T
[14] = test system: MDA-MB-231
[15] = test system: K562
[16] = test system: EKVX
[17] = test system: SF-295
[18] = test system: UACC-62
[19] = test system: UO-31
[20] = test system: RPMI-8226

Row | SMILES | GI50 [1] | GI50 [2] | GI50 [3] | GI50 [4] | GI50 [5] | GI50 [6] | GI50 [7] | GI50 [8] | GI50 [9] | GI50 [10] | GI50 [11] | GI50 [12] | GI50 [13] | GI50 [14] | GI50 [15] | GI50 [16] | GI50 [17] | GI50 [18] | GI50 [19] | GI50 [20]
1 | Cc1ccc(S(=O)(=O)N/N=C2\CC3C4C=CC3C2C4)cc1 (centres undefined) | > 100 µM (inactive) | > 100 µM (inactive) | > 100 µM (inactive) | > 100 µM (inactive) | > 100 µM (inactive) | > 100 µM (inactive) | > 100 µM (inactive) | > 100 µM (inactive) | > 100 µM (inactive) | > 100 µM (inactive) | > 100 µM (inactive) | > 100 µM (inactive) | > 100 µM (inactive) | > 100 µM (inactive) | > 100 µM (inactive) | > 100 µM (inactive) | > 100 µM (inactive) | > 100 µM (inactive) | 21 µM (inactive) | –
2 | N#CC(C#N)=CNC(=S)c1ccncc1 | > 100 µM (inactive) | 34.8 µM (inactive) | 41.6 µM (inactive) | 87.5 µM (inactive) | > 100 µM (inactive) | > 100 µM (inactive) | 21.9 µM (inactive) | > 100 µM (inactive) | > 100 µM (inactive) | > 100 µM (inactive) | – | > 100 µM (inactive) | 57.4 µM (inactive) | > 100 µM (inactive) | 39.1 µM (inactive) | > 100 µM (inactive) | > 100 µM (inactive) | > 100 µM (inactive) | 5.6 µM (inactive) | 36.9 µM (inactive)
3 | CC1=CC(C)(C)Nc2ccc(CSc3ccccc3)cc21 | 29.7 µM (inactive) | 46.6 µM (inactive) | 37.7 µM (inactive) | 19.1 µM (inactive) | – | 17.9 µM (inactive) | 16.8 µM (inactive) | 37.8 µM (inactive) | 30.7 µM (inactive) | 22 µM (inactive) | 34.8 µM (inactive) | 26.2 µM (inactive) | 38.3 µM (inactive) | 32.9 µM (inactive) | 18 µM (inactive) | 22.1 µM (inactive) | 20 µM (inactive) | 41.1 µM (inactive) | 22.1 µM (inactive) | 14.9 µM (inactive)
4 | O=C1CCC2(c3ccccc3)Nc3ccncc3N12 (centres undefined) | – | > 10 µM (inactive) | > 10 µM (inactive) | > 10 µM (inactive) | > 10 µM (inactive) | > 10 µM (inactive) | > 10 µM (inactive) | – | > 10 µM (inactive) | > 10 µM (inactive) | > 10 µM (inactive) | > 10 µM (inactive) | > 10 µM (inactive) | > 10 µM (inactive) | > 10 µM (inactive) | > 10 µM (inactive) | > 10 µM (inactive) | > 10 µM (inactive) | > 10 µM (inactive) | –
5 | C#CC(O)/C=C/CCCCCCC#CC/C=C\CC#CCCCCCC/C=C/C(O)C#C (centres undefined) | 2.1 µM (inactive) | 3.9 µM (inactive) | 12.4 µM (inactive) | 1.66 µM (inactive) | 1.4 µM (inactive) | – | – | 1.77 µM (inactive) | 0.0104 µM (active) | 2.24 µM (inactive) | 2.4 µM (inactive) | 2.32 µM (inactive) | 5.9 µM (inactive) | 2.99 µM (inactive) | 2.05 µM (inactive) | 2.3 µM (inactive) | 13.9 µM (inactive) | 2.64 µM (inactive) | 0.264 µM (active) | –
6 | COc1ccc(NC(=O)CC(=O)N2N=C(N3CCCCC3)CC2c2ccccc2)cc1 (centres undefined) | > 100 µM (inactive) | > 100 µM (inactive) | > 100 µM (inactive) | > 100 µM (inactive) | > 100 µM (inactive) | > 100 µM (inactive) | > 100 µM (inactive) | > 100 µM (inactive) | > 100 µM (inactive) | > 100 µM (inactive) | 99.5 µM (inactive) | > 100 µM (inactive) | > 100 µM (inactive) | > 100 µM (inactive) | – | > 100 µM (inactive) | > 100 µM (inactive) | > 100 µM (inactive) | > 100 µM (inactive) | –
7 | O=C(/C=C/c1ccc(OCc2ccccc2)cc1)NCc1ccc(C(=O)NCCc2ccccc2)cc1 | 89.1 µM (inactive) | > 100 µM (inactive) | > 100 µM (inactive) | > 100 µM (inactive) | > 100 µM (inactive) | > 100 µM (inactive) | > 100 µM (inactive) | > 100 µM (inactive) | > 100 µM (inactive) | > 100 µM (inactive) | > 100 µM (inactive) | > 100 µM (inactive) | > 100 µM (inactive) | > 100 µM (inactive) | – | 23.3 µM (inactive) | > 100 µM (inactive) | > 100 µM (inactive) | > 100 µM (inactive) | –
8 | O=C(Nc1ccc(N2C(=O)CSC2c2cccs2)cc1)c1ccc(N2C(=O)CSC2c2cccs2)cc1 (centres undefined) | 95.3 µM (inactive) | > 100 µM (inactive) | 49 µM (inactive) | > 100 µM (inactive) | 46.5 µM (inactive) | > 100 µM (inactive) | 36.1 µM (inactive) | > 100 µM (inactive) | 88.9 µM (inactive) | > 100 µM (inactive) | > 100 µM (inactive) | > 100 µM (inactive) | > 100 µM (inactive) | > 100 µM (inactive) | 56.2 µM (inactive) | > 100 µM (inactive) | 53 µM (inactive) | 56.5 µM (inactive) | > 100 µM (inactive) | –
9 | CC(=O)n1cc(OP(=O)(Oc2ccccc2)Oc2ccccc2)c2ccccc21 | – | – | 58.9 µM (inactive) | 29.2 µM (inactive) | 32.7 µM (inactive) | 36.4 µM (inactive) | – | 29.3 µM (inactive) | 23.2 µM (inactive) | 27.6 µM (inactive) | – | 35.6 µM (inactive) | 40.8 µM (inactive) | 24.8 µM (inactive) | 23.2 µM (inactive) | – | 38.9 µM (inactive) | 16.9 µM (inactive) | 22.1 µM (inactive) | 19.2 µM (inactive)
10 | COc1ccc(-n2c(C)nc3ccc(NC4OC(CO)C(O)C(O)C4O)cc3c2=O)cc1 (centres undefined) | > 100 µM (inactive) | > 100 µM (inactive) | > 100 µM (inactive) | > 100 µM (inactive) | > 100 µM (inactive) | > 100 µM (inactive) | > 100 µM (inactive) | > 100 µM (inactive) | > 100 µM (inactive) | > 100 µM (inactive) | – | > 100 µM (inactive) | > 100 µM (inactive) | > 100 µM (inactive) | > 100 µM (inactive) | > 100 µM (inactive) | > 100 µM (inactive) | > 100 µM (inactive) | > 100 µM (inactive) | > 100 µM (inactive)
11 | COc1cc2c3c(c4ccc(OC)c(OC)c4c2cc1OC)CN1CCC[C@@H]1C3 [TYLOCREBRINE] | 0.0316 µM (active) | 0.0444 µM (active) | 0.0163 µM (active) | 0.0564 µM (active) | – | 0.0248 µM (active) | 0.0313 µM (active) | 0.0307 µM (active) | 0.0249 µM (active) | 0.0622 µM (active) | < 0.0246 µM (active) | 0.0428 µM (active) | 0.0182 µM (active) | 0.0204 µM (active) | 0.0191 µM (active) | 0.0172 µM (active) | 0.0395 µM (active) | < 0.01 µM (active) | < 0.01 µM (active) | 0.0325 µM (active)

From ChEMBL document CHEMBL1201862, “PubChem BioAssay data set” (2004)
